Source: patent EP4752142A1, “5-HT2A RECEPTOR AGONIST, AND PREPARATION METHOD THEREFOR AND USE THEREOF” (Innovstone Therapeutics Limited, priority 2023, dated 2025)
Like-named read-outs stand apart in the source and are kept apart here.

Target: 5-HT2A receptor (Homo sapiens, UniProt P28223)
Experiment: 5-HT2A receptor isotope competition affinity assay
Type: binding
Protocol: A radiolabeled ligand (agonist or antagonist) incubated with receptor protein could form a receptor-ligand complex. An added test compound could compete with the isotopically labeled ligand for the receptor binding, eventually forming a relative steady-state equilibrium. The affinity of the test compound for the receptor was indirectly evaluated by measuring the dissociation of the isotopically labeled ligand from the receptor.
A 100x serial gradient dilution of compounds was prepared in DMSO, starting from 1 mM with 4-fold serial dilutions, resulting in 10 concentration points. Using a pipettor, 1 µL of each gradient concentration of the test compound (final concentration starting at 10 µM, 4-fold serial dilutions, 10 concentration points) was transferred to a 96-well assay plate, to each well of which 49 µL of 5-HT2A receptor protein (102 µg/mL, prepared in an assay buffer: 50 mM Tris-HCl, pH 7.4) had been added in advance (final concentration 5 µg/well). This was followed by the addition of 50 µL of isotopically labeled [^3H]-Ketanserin (2 nM, 2× final concentration, prepared in the assay buffer). The plate was sealed and incubated on a shaker at room temperature for 1 hour. The reaction mixture was filtered through a Unifilter-96 GF/C filter plate pre-treated with 0.3% PEI. The filter plate was washed with a precooled (4°C) assay buffer and then dried in an incubator at 50°C. A scintillation liquid was added, and the plate was read using a MicroBeta2 instrument. The percentage inhibition was calculated using the equation: %Inhibition=(CountHigh Signal Control-CountSample)/(CountHigh Signal Control-CountLow Signal Control)*100. A four-parameter logistic fit was used to calculate the IC50 value. High Signal Control: No compound group (the same volume of DMSO substituted). Low Signal Control: Ketanserin group (non-isotopically labeled, 2× final concentration). Table 1: Results of 5-HT2A receptor isotope competition affinity assay, Ki Values

[1] = competition with [3H]-Ketanserin, 1 hour, room temperature, read-out: 5-HT2A receptor/Ki

Sequence of 5-HT2A receptor (P28223 whole entry): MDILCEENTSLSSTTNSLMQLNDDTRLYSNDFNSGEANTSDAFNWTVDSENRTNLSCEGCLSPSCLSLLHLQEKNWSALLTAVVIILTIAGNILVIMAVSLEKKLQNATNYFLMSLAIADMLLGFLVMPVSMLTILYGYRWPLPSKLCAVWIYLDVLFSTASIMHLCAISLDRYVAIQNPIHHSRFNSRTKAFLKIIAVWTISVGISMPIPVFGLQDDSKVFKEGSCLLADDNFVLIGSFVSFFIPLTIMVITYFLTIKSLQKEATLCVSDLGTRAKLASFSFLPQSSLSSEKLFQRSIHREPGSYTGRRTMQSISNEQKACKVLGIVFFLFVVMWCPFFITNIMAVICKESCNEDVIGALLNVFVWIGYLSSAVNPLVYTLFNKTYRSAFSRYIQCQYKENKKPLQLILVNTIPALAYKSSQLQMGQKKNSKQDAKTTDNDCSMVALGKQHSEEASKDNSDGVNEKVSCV

COc1ccccc1CCN1CCC(c2c[nH]c3cccc(O)c23)C1 (centres unmarked) [Compound 1, 3-(1-(2-(2-methoxyphenyl)ethyl)pyrrolidin-3-yl)-1H-indol-4-ol]
Ki [1]: < 0.1 µM

COc1ccccc1CCCN1CCCC(c2c[nH]c3cccc(O)c23)C1 (centres unmarked) [Compound 4, 3-(1-(3-(2-methoxyphenyl)propyl)piperidin-3-yl)-1H-indol-4-ol]
Ki [1]: < 0.1 µM

COc1ccccc1CCCN1CCC(c2c[nH]c3ccccc23)C1 (centres unmarked) [Compound 5, 3-(1-(3-(2-methoxyphenyl)propyl)pyrrolidin-3-yl)-1H-indole]
Ki [1]: < 0.1 µM

COc1ccccc1CCCN1CCC(n2ccc3cc(F)ccc32)C1 (centres unmarked) [Compound 7]
Ki [1]: < 0.1 µM

COc1ccccc1CCCN1CCC(c2c[nH]c3cccc(F)c23)C1 (centres unmarked) [Compound 8]
Ki [1]: < 0.1 µM

COc1ccccc1CCCN1CCC(c2c[nH]c3cccc(OC)c23)C1 (centres unmarked) [Compound 9]
Ki [1]: < 0.1 µM

COc1ccccc1C1CCN(CCc2c[nH]c3cccc(O)c23)CC1 [Compound 10, 3-(2-(4-(2-methoxyphenyl)piperidin-1-yl)ethyl)-1H-indol-4-ol]
Ki [1]: < 0.1 µM

COc1ccccc1CCCN1CC(c2c[nH]c3ccccc23)C1 [Compound 11, 3-(1-(3-(2-methoxyphenyl)propyl)azetidin-3-yl)-1H-indole]
Ki [1]: < 0.1 µM

COc1ccccc1CCCN1C2CCC1C(c1c[nH]c3ccccc13)C2 (centres unmarked) [Compound 16, 3-(7-(3-(2-methoxyphenyl)propyl)-7-azabicyclo[2.2.1]heptan-2-yl)-1H-indole]
Ki [1]: < 0.1 µM

COc1ccccc1CCCN1CCC(c2c[nH]c3ncccc23)C1 (centres unmarked) [Compound 22]
Ki [1]: < 0.1 µM

COc1ccccc1CCCN1CCC(c2n[nH]c3ccccc23)C1 (centres unmarked) [Compound 23]
Ki [1]: < 0.1 µM

COc1ccccc1CCCN1CCOC(c2c[nH]c3ccccc23)C1 (centres unmarked) [Compound 29, 2-(1H-indol-3-yl)-4-(3-(2-methoxyphenyl)propyl)morpholine]
Ki: < 0.1 µM

COc1ccccc1CCCN1CCC(c2n[nH]c3ccncc23)C1 (centres unmarked) [Compound 30]
Ki [1]: < 0.1 µM

COc1ccccc1CCCN1CCOC(c2c[nH]c3ccncc23)C1 (centres unmarked) [Compound 34, 4-(3-(2-methoxyphenyl)propyl)-2-(1H-pyrrolo[3,2-c]pyridin-3-yl)morpholine]
Ki: < 0.1 µM

COc1ccccc1CCCN1CCOC(c2n[nH]c3ccccc23)C1 (centres unmarked) [Compound 37, 3-(4-(3-(2-methoxyphenyl)propyl)morpholin-2-yl)-1H-indazole]
Ki: < 0.1 µM

Oc1cccc2[nH]cc(C3CN(CCCc4cc(F)ccc4F)CCO3)c12 (centres unmarked) [Compound 40]
Ki [1]: < 0.1 µM

c1ccc2c(C3CCN(CCCc4nncs4)C3)c[nH]c2c1 (centres unmarked) [Compound 50, 3-(1-(3-(1,3,4-thiadiazol-2-yl)propyl)pyrrolidin-3-yl)-1H-indole]
Ki: < 0.1 µM

c1ccc2c(C3CCN(CCCc4ncsn4)C3)c[nH]c2c1 (centres unmarked) [Compound 55, 3-(1-(3-(1,2,4-thiadiazol-3-yl)propyl)pyrrolidin-3-yl)-1H-indole]
Ki [1]: < 0.1 µM

Cn1cc(CCCN2CCC(c3c[nH]c4ccccc34)C2)cn1 (centres unmarked) [Compound 57, 3-(1-(3-(1-methyl-1H-pyrazol-4-yl)propyl)pyrrolidin-3-yl)-1H-indole]
Ki [1]: < 0.1 µM

Cn1cc(CCCN2CCC(n3ccc4cc(F)ccc43)C2)cn1 (centres unmarked) [Compound 61]
Ki [1]: < 0.1 µM

Cn1cc(CCCN2CCC(c3noc4cc(F)ccc34)C2)cn1 (centres unmarked) [Compound 68]
Ki [1]: < 0.1 µM

Cn1cc(CCCN2CCC(c3n[nH]c4ccccc34)C2)cn1 (centres unmarked) [Compound 69, 3-(1-(3-(1-methyl-1H-pyrazol-4-yl)propyl)pyrrolidin-3-yl)-1H-indazole]
Ki: < 0.1 µM

CC(C)n1cnnc1CCCN1CCC(c2c[nH]c3ccccc23)C1 (centres unmarked) [Compound 79]
Ki [1]: < 0.1 µM

CC(C)n1cnnc1CCCN1CCC(n2ccc3cc(F)ccc32)C1 (centres unmarked) [Compound 80]
Ki [1]: < 0.1 µM

Fc1ccc2c(C3CCN(CCCc4nncn4CC(F)(F)F)C3)c[nH]c2c1 (centres unmarked) [Compound 83]
Ki [1]: < 0.1 µM

CC(C)n1cnnc1CCCN1CCC(c2c[nH]c3cc(F)ccc23)C1 (centres unmarked) [Compound 84]
Ki [1]: < 0.1 µM

Cc1nnc(CCCN2CCC(c3c[nH]c4ccccc34)C2)n1C(C)C (centres unmarked) [Compound 86, 3-(1-(3-(5-methyl-4-(propan-2-yl)-4H-1,2,4-triazol-3-yl)propyl)pyrrolidin-3-yl)-1H-indole]
Ki [1]: < 0.1 µM

CC1CN(CCCc2nncn2C(C)C)CC1c1c[nH]c2cc(F)ccc12 (centres unmarked) [Compound 90, 6-fluoro-3-(4-methyl-1-(3-(4-(propan-2-yl)-4H-1,2,4-triazol-3-yl)propyl)pyrrolidin-3-yl)-1H-indole]
Ki [1]: < 0.1 µM

CC(CCc1nncn1C(C)C)N1CCC(c2c[nH]c3cc(F)ccc23)C1 (centres unmarked) [Compound 91]
Ki [1]: < 0.1 µM

Fc1ccc2c(C3CCN(CCCc4nncn4C4CCC4)C3)c[nH]c2c1 (centres unmarked) [Compound 92]
Ki [1]: < 0.1 µM

Fc1ccc2c(C3CCN(CCCc4nncn4C4CC4)C3)c[nH]c2c1 (centres unmarked) [Compound 99]
Ki [1]: < 0.1 µM

CC(C)n1c(CCCN2CCC(c3c[nH]c4cc(F)ccc34)C2)nnc1C(F)(F)F (centres unmarked) [Compound 100]
Ki [1]: < 0.1 µM

Cc1nnc(CCCN2CCC(n3ccc4cc(F)ccc43)C2)n1C(C)C (centres unmarked) [Compound 103]
Ki [1]: < 0.1 µM

COc1ncncc1CCCN1CCC(c2c[nH]c3ccccc23)C1 (centres unmarked) [Compound 132, 3-(1-(3-(4-methoxypyrimidin-5-yl)propyl)pyrrolidin-3-yl)-1H-indole]
Ki [1]: < 0.1 µM

Oc1cccc2[nH]cc(C3CCN(CCc4coc5c(F)cccc45)C3)c12 (centres unmarked) [Compound 135]
Ki [1]: < 0.1 µM

CC(C)c1nnc2n1CCC(CN1CCC(c3c[nH]c4ccccc34)C1)C2 (centres unmarked) [Compound 139, 7-((3-(1H-indol-3-yl)pyrrolidin-1-yl)methyl)-3-isopropyl-5,6,7,8-tetrahydro-[1,2,4]triazolo[4,3-a]pyridine]
Ki [1]: < 0.1 µM

c1ccc2c(c1)CC(CN1CCC(c3c[nH]c4ccncc34)C1)CO2 (centres unmarked) [Compound 141]
Ki [1]: < 0.1 µM

c1ccc2c(C3CCN(CCc4nnc5sccn45)C3)c[nH]c2c1 (centres unmarked) [Compound 143, 3-(2-(3-(1H-indol-3-yl)pyrrolidin-1-yl)ethyl)thiazolo[2,3-c][1,2,4]triazole]
Ki [1]: < 0.1 µM

c1ccc2c(C3CCN(CC4CCn5c(nnc5C5CC5)C4)C3)c[nH]c2c1 (centres unmarked) [Compound 145, 3-(1-((3-cyclopropyl-SH,6H,7H,8H-[1,2,4]triazolo[4,3-a]pyridine-7-yl)methyl)pyrrolidin-3-yl)-1H-indole]
Ki [1]: < 0.1 µM

COc1cccc2nnc(CCN3CCC(c4c[nH]c5cc(F)ccc45)C3)n12 (centres unmarked) [Compound 147, 6-fluoro-3-(1-(2-(5-methoxy-(1,2,4)triazolo(4,3-a)pyridin-3-yl)ethyl)pyrrolidin-3-yl)-1H-indole]
Ki [1]: < 0.1 µM

COc1ccc(F)c2nnc(CCN3CC(c4c[nH]c5cc(F)ccc45)C3)n12 [Compound 148, 6-fluoro-3-(1-(2-(8-fluoro-5-methoxy-(1,2,4)triazolo(4,3-a)pyridin-3-yl)ethyl)azetidin-3-yl)-1H-indole]
Ki [1]: < 0.1 µM

Fc1ccc2c(C3CCN(CCc4nnc5c(F)cccn45)C3)c[nH]c2c1 (centres unmarked) [Compound 149, 6-fluoro-3-(1-(2-(8-fluoro-(1,2,4)triazolo[4,3-a]pyridin-3-yl)ethyl)pyrrolidin-3-yl)-1H-indole]
Ki [1]: < 0.1 µM

Oc1cccc2[nH]cc(C3CCN(CCCc4ncon4)C3)c12 (centres unmarked) [Compound 173, 3-(1-(3-(1,2,4-oxadiazol-3-yl)propyl)pyrrolidin-3-yl)-1H-indol-4-ol]
Ki [1]: < 0.1 µM

CC(C)c1nc(CCCN2CCC(c3c[nH]c4cccc(O)c34)C2)no1 (centres unmarked) [Compound 174, 3-(1-(3-(5-isopropyl-1,2,4-oxadiazol-3-yl)propyl)pyrrolidin-3-yl)-1H-indol-4-ol]
Ki [1]: < 0.1 µM

CC(C)c1nc(CCCN2CCC(c3n[nH]c4ccccc34)C2)no1 (centres unmarked) [Compound 175, 3-(3-(-3-(1H-indazol-3-yl)pyrrolidin-1-yl)propyl)-5-isopropyl-1,2,4-oxadiazole]
Ki [1]: < 0.1 µM

c1ccc2c([C@H]3CCN(CCCn4nccn4)C3)c[nH]c2c1 [Compound 177, (R)-3-(1-(3-(2H-1,2,3-triazol-2-yl)propyl)pyrrolidin-3-yl)-1H-indole]
Ki [1]: < 0.1 µM

c1ccc2c([C@@H]3CCN(CCCn4nccn4)C3)c[nH]c2c1 [Compound 178, (S)-3-(1-(3-(2H-1,2,3-triazol-2-yl)propyl)pyrrolidin-3-yl)-1H-indole]
Ki [1]: < 0.1 µM

C1=C(c2c[nH]c3ccccc23)CN(CCCn2nccn2)CC1 [Compound 179, 3-(1-(3-(2H-1,2,3-triazol-2-yl)propyl)-1,2,5,6-tetrahydropyridin-3-yl)-1H-indole]
Ki [1]: < 0.1 µM

Oc1cccc2[nH]cc([C@H]3CCN(CCCn4nccn4)C3)c12 [Compound 181, (R)-3-(1-(3-(2H-1,2,3-triazol-2-yl)propyl)pyrrolidin-3-yl)-1H-indol-4-ol]
Ki [1]: < 0.1 µM

Cc1nn(CCCN2CC[C@H](c3c[nH]c4cccc(O)c34)C2)nc1C [Compound 185, (R)-3-(1-(3-(4,5-dimethyl-2H-1,2,3-triazol-2-yl)propyl)pyrrolidin-3-yl)-1H-indol-4-ol]
Ki [1]: < 0.1 µM
